In US20020026053A1, “Novel 3-(substituted) -2- indolinones compounds and use thereof as inhibitors of protein kinase activity” (priority 1997, published 2002):
Several values for one entry are separate records, joined by “and”; a condition that tells them apart may be missing. Equal entries are not always repeated.

Target: T1, Met receptor (EGFR/Met chimeric cells, EMR) (Homo sapiens, UniProt P08581)
T1 construct: expressed in transfected cells; the other entry of the earlier key: EGFR (P00533, Epidermal growth factor receptor)
T1 sequence (P08581 with tags, fused parts or gaps): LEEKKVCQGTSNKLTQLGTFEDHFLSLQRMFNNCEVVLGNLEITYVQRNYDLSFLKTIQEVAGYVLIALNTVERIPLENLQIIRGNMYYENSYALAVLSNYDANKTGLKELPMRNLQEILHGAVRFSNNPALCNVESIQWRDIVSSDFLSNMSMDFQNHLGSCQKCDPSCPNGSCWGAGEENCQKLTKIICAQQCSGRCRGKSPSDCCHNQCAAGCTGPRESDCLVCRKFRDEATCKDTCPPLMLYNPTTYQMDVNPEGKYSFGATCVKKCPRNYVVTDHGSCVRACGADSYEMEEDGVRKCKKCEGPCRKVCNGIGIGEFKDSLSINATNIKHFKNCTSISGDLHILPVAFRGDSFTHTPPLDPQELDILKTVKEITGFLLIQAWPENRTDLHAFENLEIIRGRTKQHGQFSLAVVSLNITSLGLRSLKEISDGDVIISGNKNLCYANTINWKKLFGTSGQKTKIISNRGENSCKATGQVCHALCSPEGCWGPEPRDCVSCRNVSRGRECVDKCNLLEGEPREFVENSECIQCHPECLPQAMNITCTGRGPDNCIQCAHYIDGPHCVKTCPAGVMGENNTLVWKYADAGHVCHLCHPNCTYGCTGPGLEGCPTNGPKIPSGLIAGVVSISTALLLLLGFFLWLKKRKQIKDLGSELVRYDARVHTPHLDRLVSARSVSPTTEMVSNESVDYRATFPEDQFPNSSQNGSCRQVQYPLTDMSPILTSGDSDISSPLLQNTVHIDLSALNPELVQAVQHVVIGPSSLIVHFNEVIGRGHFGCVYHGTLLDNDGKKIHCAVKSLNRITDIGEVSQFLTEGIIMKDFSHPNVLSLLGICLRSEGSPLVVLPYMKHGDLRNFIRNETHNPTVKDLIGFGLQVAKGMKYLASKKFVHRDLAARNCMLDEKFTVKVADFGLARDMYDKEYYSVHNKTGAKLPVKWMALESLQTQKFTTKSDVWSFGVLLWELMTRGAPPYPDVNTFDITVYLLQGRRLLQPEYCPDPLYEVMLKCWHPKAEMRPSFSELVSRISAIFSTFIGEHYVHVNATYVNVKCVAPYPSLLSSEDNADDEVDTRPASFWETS
Test: Met Autophosphorylation Assay
Type: biochemical
Method: Met Autophosphorylation Assay
This assay determines Met tyrosine kinase activity by analyzing Met protein tyrosine kinase levels on the Met receptor.
a. HNTG (5× stock solution): Dissolve 23.83 g HEPES and 43.83 g NaCl in about 350 ml dH2O. Adjust pH to 7.2 with HCl or NaOH, add 500 ml glycerol and 10 ml Triton X-100, mix, add dH2O to 1 L total volume. To make 1 L of 1× working solution add 200 ml 5× stock solution to 800 ml dH2O, check and adjust pH as necessary, store at 4° C.
b. PBS (Dulbecco's Phosphate-Buffered Saline), Gibco Cat. # 450-1300EB (1× solution).
c. Blocking Buffer: in 500 ml dH2O place 100 g BSA, 12.1 g Tris-pH7.5, 58.44 g NaCl and 10 ml Tween-20, dilute to 1 L total volume.
d. Kinase Buffer: To 500 ml dH2O add 12.1 g TRIS (pH 7.2), 58.4 g NaCl, 40.7 g MgCl2 and 1.9 g EGTA; bring to 1 L total volume with dH2O.
e. PMSF (Phenylmethylsulfonyl fluoride), Sigma Cat. # P-7626, to 435.5 mg, add 100% ethanol to 25 ml total volume, vortex.
f. ATP (Bacterial Source), Sigma Cat. # A-7699, store powder at −20° C.; to make up solution for use, dissolve 3.31 mg in 1 ml dH2O.
g. RC-20H HRPO Conjugated Anti-Phosphotyrosine, Transduction Laboratories Cat. # E120H.
h. Pierce 1-Step Turbo™ B-ELISA (3,3′,5,5′-tetramethylbenzidine, Pierce Cat. # 34022.
i. H2SO4, add 1 ml conc.(18 N) to 35 ml dH2O.
j. TRIS HCL, Fischer Cat. # BP152-5; to 121.14 g of material, add 600 ml MilliQ H2O, adjust pH to 7.5 (or 7.2) with HCl, bring volume to 1 L with MilliQ H2O.
k. NaCl, Fischer Cat. # S271-10, make up 5M solution.
m. Na3VO4, Fischer Cat. # S454-50, to 1.8 g material add 80 ml MilliQ H2O, adjust pH to 10.0 with HCl or NaOH, boil in microwave, cool, check pH, repeat procedure until pH stable at 10.0, add MilliQ H2O to 100 ml total volume, make 1 ml aliquots and store at −80° C.
n. MgCl2, Fischer Cat. # M33-500, make up 1M solution.
o. HEPES, Fischer Cat. # BP310-500, to 200 ml MilliQ H2O, add 59.6 g material, adjust pH to 7.5, bring volume to 250 ml total, sterile filter.
p. Albumin, Bovine (BSA), Sigma Cat. # A-4503, to 30 grams material add sterile distilled water to make total volume of 300 ml, store at 4° C.
q. TBST Buffer: to approx. 900 ml dH2O in a 1 L graduated cylinder add 6.057 g TRIS and 8.766 g NaCl, when dissolved, adjust pH to 7.2 with HCl, add 1.0 ml Triton X-100 and bring to 1 L total volume with dH2O.
r. Goat Affinity purified antibody Rabbit IgG (whole molecule), Cappel Cat. # 55641.
s. Anti h-Met (C-28) rabbit polyclonal IgG antibody, Santa Cruz Chemical Cat. # SC-161.
t. Transiently Transfected EGFR/Met chimeric cells (EMR) (Komada, et al., Oncogene, 8:2381-2390 (1993).
u. Sodium Carbonate Buffer, ([…], Fischer Cat. # S495) to 10.6 g material add 800 ml MilliQ H2O, when dissolved adjust pH to 9.6 with NaOH, bring up to 1 L total volume with MilliQ H2O, filter, store at 4° C.
All of the following steps are conducted at room temperature unless it is specifically indicated otherwise. All ELISA plate washing is by rinsing 4× with TBST.
This procedure can be performed the night before or immediately prior to the start of receptor capture.
1. Quick thaw lysates in a 37° C. waterbath with a swirling motion until the last crystals disappear.
2. Lyse cell pellet with 1× HNTG containing 1 mM PMSF. Use 3 ml of HNTG per 15 cm dish of cells. Add ½ the calculated HNTG volume, vortex the tube for 1 min., add the remaining amount of HNTG, vortex for another min.
3. Balance tubes, centrifuge at 10,000× g for 10 min at 4° C.
4. Pool supernatants, remove an aliquot for protein determination.
5. Quick freeze pooled sample in dry ice/ethanol bath. This step is performed regardless of whether lysate will be stored overnight or used immediately following protein determination.
6. Perform protein determination using standard bicinchoninic acid (BCA) method (BCA Assay Reagent Kit from Pierce Chemical Cat. # 23225).
1. Coat Corning 96 well ELISA plates with 5 μg per well Goat anti-Rabbit antibody in Carbonate Buffer for a total well volume of 50 μl. Store overnight at 4° C. […]

SMILES | Met Kinase % Inhibition (P.130)
Cc1c(Br)cc(Br)c2c1C(=Cc1ccc(F)cc1)C(=O)N2 [10717/H05] | 16.3%
Cc1c(Br)cc(Br)c2c1C(=Cc1c[nH]c3ccccc13)C(=O)N2 [10717/H06] | 30.5%
Cc1ccc(C=C2C(=O)Nc3c(Br)cc(Br)c(C)c32)s1 [10717/H07] | 9.1%
Cc1c(Br)cc(Br)c2c1C(=Cc1ccc(Br)cc1)C(=O)N2 [10717/H08] | 23.0%
Cc1c(Br)cc(Br)c2c1C(=Cc1ccc[nH]1)C(=O)N2 [10717/H09] | 8.8%
COc1cccc(O)c1C=C1C(=O)Nc2c(Br)cc(Br)c(C)c21 [10717/H10] | 52.3%
Cc1[nH]c(C=C2C(=O)Nc3c(Br)cc(Br)c(C)c32)c(Br)c1Br [10717/H11] | 58.2%
Cc1c(Br)cc(Br)c2c1C(=Cc1ccc(Br)o1)C(=O)N2 [10726/H05] | 80.2%
Cc1cn(C)cc1C=C1C(=O)Nc2c(Br)cc(Br)c(C)c21 [10726/H06] | 35.1%
Cc1c(Br)cc(Br)c2c1C(=Cc1cc(O)c3c(c1O)CCCC3)C(=O)N2 [10726/H07] | 80.9%
Cc1c(Br)cc(Br)c2c1C(=C1C(=O)Nc3ccc(F)cc31)C(=O)N2 [10726/H08] | 71.2%
Cc1c(Br)cc(Br)c2c1C(=C1C(=O)Nc3ccccc31)C(=O)N2 [10726/H09] | 68.1%
CCc1ccc(C=C2C(=O)Nc3c(Br)cc(Br)c(C)c32)s1 [10726/H10] | 45.7%
COc1ccc(C=C2C(=O)Nc3c(Br)cc(Br)c(C)c32)cc1 [10726/H11] | 40.8%
CCN(CC)c1ccc(C=C2C(=O)Nc3c(Br)cc(Br)c(C)c32)cc1 [10727/H02] | 55.5%
CCc1cc(CC)c(C=C2C(=O)Nc3c(Br)cc(Br)c(C)c32)[nH]1 [10727/H03] | 49.2%
Cc1c(Br)cc(Br)c2c1C(=Cc1cc(Cl)cc(Br)c1O)C(=O)N2 [10727/H04] | 81.7%
Cc1c(Br)cc(Br)c2c1C(=Cc1ccccc1Sc1ccc(Cl)cc1)C(=O)N2 [10727/H05] | 20.6%
Cc1c(Br)cc(Br)c2c1C(=Cc1cc3c(cc1Cl)OCO3)C(=O)N2 [10727/H06] | 5.2%
Cc1c(Br)cc(Br)c2c1C(=Cc1coc3ccccc3c1=O)C(=O)N2 [10727/H07] | 26.8%
Cc1c(Br)cc(Br)c2c1C(=Cc1cccc(C#N)c1)C(=O)N2 [10727/H08] | 12.3%
Cc1c(Br)cc(Br)c2c1C(=Cc1ccc(C#N)cc1)C(=O)N2 [10727/H09] | 31.1%
Cc1c(Br)cc(Br)c2c1C(=Cc1cc(O)ccc1O)C(=O)N2 [10727/H10] | 89.7%
COc1cccc(C=C2C(=O)Nc3c(Br)cc(Br)c(C)c32)c1OC [10727/H11] | 17.9%

SMILES | Met Kinase % Inhibition (P.130)
COc1ccc(OC)c(C=C2C(=O)Nc3c(Br)cc(Br)c(C)c32)c1 [10728/H02] | 25.8%
COc1cccc(OC)c1C=C1C(=O)Nc2c(Br)cc(Br)c(C)c21 [10728/H03] | 15.6%
COc1cc(C=C2C(=O)Nc3c(Br)cc(Br)c(C)c32)cc(OC)c1 [10728/H04] | 32.9%
COc1cc(N(C)C)ccc1C=C1C(=O)Nc2c(Br)cc(Br)c(C)c21 [10728/H05] | 41.2% and 33.9%
Cc1c(Br)cc(Br)c2c1C(=Cc1ccc3c(c1)Cc1ccccc1-3)C(=O)N2 [10728/H06] | 28.5%
Cc1c(Br)cc(Br)c2c1C(=Cc1cccc(C(F)(F)F)c1F)C(=O)N2 [10728/H07] | 45.8%
Cc1c(Br)cc(Br)c2c1C(=Cc1c(F)cccc1C(F)(F)F)C(=O)N2 [10728/H09] | 30.5%
Cc1c(Br)cc(Br)c2c1C(=Cc1ccccc1OCC(=O)O)C(=O)N2 [10728/H10] | 65.2%
COc1cc(C=C2C(=O)Nc3c(Br)cc(Br)c(C)c32)cc2c1OCO2 [10728/H11] | 8.0%
COc1ccc2ccccc2c1C=C1C(=O)Nc2c(Br)cc(Br)c(C)c21 [10729/H02] | 25.5%
COc1ccc(C=C2C(=O)Nc3c(Br)cc(Br)c(C)c32)c2ccccc12 [10729/H03] | 2.8%
CSc1ccc(C=C2C(=O)Nc3c(Br)cc(Br)c(C)c32)cc1 [10729/H04] | 25.1%
Cc1ccsc1C=C1C(=O)Nc2c(Br)cc(Br)c(C)c21 [10729/H05] | 27.9%
Cc1c(Br)cc(Br)c2c1C(=Cc1cccc(Oc3ccccc3)c1)C(=O)N2 [10729/H06] | 28.4%
Cc1c(Br)cc(Br)c2c1C(=Cc1ccccn1)C(=O)N2 [10729/H07] | 81.0%
Cc1c(Br)cc(Br)c2c1C(=Cc1cccnc1)C(=O)N2 [10729/H08] | 44.0%
Cc1c(Br)cc(Br)c2c1C(=Cc1ccncc1)C(=O)N2 [10729/H09] | 45.1%
Cc1c(Br)cc(Br)c2c1C(=Cc1ccc(N3CCCC3)cc1)C(=O)N2 [10729/H10] | 12.8%
Cc1c(Br)cc(Br)c2c1C(=CC1C=CCCC1)C(=O)N2 (stereo not drawn) [10729/H11] | 36.1%
COc1ccc(C=C2C(=O)Nc3c(Br)cc(Br)c(C)c32)c(OC)c1OC [10730/H02] | 32.0%
COc1cc(OC)c(OC)cc1C=C1C(=O)Nc2c(Br)cc(Br)c(C)c21 [10730/H03] | 28.3%
COc1cc(C=C2C(=O)Nc3c(Br)cc(Br)c(C)c32)cc(OC)c1OC [10730/H04] | 37.1%
CC(=O)n1cc(C=C2C(=O)Nc3c(Br)cc(Br)c(C)c32)c2ccccc21 [10730/H05] | 30.7%
Cc1c(Br)cc(Br)c2c1C(=Cc1ccc(-c3ccccc3Cl)o1)C(=O)N2 [10730/H07] | 38.7%
